The subject of series [1] is virus-induced cell fusion (gp120-CD4 dependent). In words: Anti-syncytial cocultivation assay: H9 cells chronically infected with HIV-1 RF mixed with uninfected C8166 cells. Type of series: cell-based, HIV-1 RF; human H9 and C8166 cells. Conditions: 200 μg/ml; Panel C.
Series [2] relates to HIV-1 strain RF in MT-4 cells. Description: Growth of HIV-1 RF in MT-4 cells. In kind it is cell-based, HIV-1 (human MT-4 cells). The source says:
When evaluated in the human T cell line JM acutely infected with the GB8 virus, DIDS, H2 DIDS and SITS (Table I) suppressed virus-induced multinucleated giant cell formation (syncytia). […] We also examined the antiviral properties of these compounds in a second host-cell/virus system, i.e., the highly CD4+ C8166 cells infected with the Haitian strain of HIV-1, RF.
The cell lines used were the semi-mature human lymphoblastoid leukemia T cell line JM, the human T-lymphoblastoid C8166 cell line, the human cutaneous T cell lymphoma line H9 and, the human T cell transformed line MT-4. Stocks of HIV-1 strains RF and GB8 (kindly provided by Dr. Graham Farrar, Center for Applied Microbiological Research, Porton Dawn, England) were prepared from chronically infected H9 cells and acutely infected JM cells, respectively. Virus stocks consisted of cell-free growth medium (RPMI 1640 plus 10% fetal calf serum) containing freshly shed virus. Virus titres were determined by a standard plaque reduction assay.

For series [3], the system named is virus-induced cell fusion (gp120-CD4 dependent). Description: Cell fusion after pretreatment of uninfected C8166 cells, washing and mixing with chronically infected H9 cells. As to conditions: 100 μg/ml; overnight pretreatment, washed; 6 hour observation. Type of series: cell-based, HIV-1; human H9 and C8166 cells. On the procedure: In the next experiments, CD4+ C8166 cells were pretreated overnight with either DIDS (100 μg/ml), SITS (100 μg/ml) or drug-free medium. Unabsorbed compounds were removed by repeated washings and chronically infected H9 cells were then added. […] Thus, cell washing prior to mixing with the H9 cells oblated the protective effect observed above (FIG. 1, Panel E) when 500,000 MW dextran sulfate was continually present in the assay.
Pretreatment of CD4+ C8166 cells with DIDS blocks fusion with chronically infected H9 cells. In this experiment, C8166 cells were pretreated overight with various stilbene disulfonic acids or drug-free medium (fusion control). The cells were washed, incubated with chronically infected H9 cells and syncytia were photographed at 6 hours post-mixing. Pretreatment conditions were as follows: […]: 100 μg/ml SITS; FIG. 2B: drug-free medium; and FIG. 2C: 100 μg/ml DIDS.
In pretreatment experiments, CD4^+ C8166 cells were maintained in serum-free medium (RPMI 1640 plus human transferrin 50 μg/ml, bovine insulin 20 μg/ml, bovine serum albumin 2 mg/ml) and were exposed to compound by overnight incubation. Treated cells were washed twice in fresh serum-free medium and then cocultured with chronically infected H9 cells in serum-free medium. Otherwise, cell numbers, assay conditions and scoring of syncytia were as described above.
Protocol: C8166 cells were pretreated for 2.5 hours with either DIDS, SITS or H2 DIDS (at 500 and 250 μg/ml). The cells were then washed three times and mixed with H9 cells chronically infected with HIV-1. Cell fusion was quantified after 4 and 24 hours.

The next series deals with MT-4 cells. Description: Cytotoxicity in MT-4 cells, tetrazolium reduction assay. In kind it is cell-based, human.
A further series has as its system HCMV. Description: Plaque reduction assay, HCMV. In kind it is cell-based. On the procedure: Protocol: Plaque reduction assay. Treatment after adsorption during incubation.
The test system of series [4] is virus-induced cell fusion (gp120-CD4 dependent). In words: Anti-syncytial cocultivation assay: H9 cells chronically infected with HIV-1 RF mixed with uninfected C8166 cells. In kind it is cell-based, HIV-1 RF; human H9 and C8166 cells. Conditions: for Syncytia after 2 hrs: virus control ++; for Syncytia after 3 1/2 hrs / Syncytia after 5 1/2 hrs: virus control +++. The text has this:
Syncytial cell formation depends on the interaction of gp120, expressed in the membranes of infected cells, with the CD4 antigen on neighboring cells (Camerini and Seed, 1990). We utilized a cell cocultivation model to examine the effect of the stilbene disulfonic acids on the gp120-CD4 dependent fusion process. This system consists of mixing H9 cells chronically infected with HIV-1 RF (gp120^+ cells) with uninfected C8166 cells (CD4^+ cells) as the fusion indicator. In this assay, cell fusion occurred within 2 to 3 hours of mixing at 37° C. and substantial syncytia were observed after a further 3 to 4 hours (FIG. 1, Panel A). […] These findings with the sulfated polysaccharides were consistent with a previous report (Montefiori et al., 1990).
The effect of the stilbene disulfonic acids and various sulfated polysaccharides on virus-induced cell fusion. In this assay, 10^5 H9 cells, chronically infected with the HIV-1 strain RF, were cocultured with 10^5 uninfected C8166 cells in the absence and presence of the test compounds. FIG. 1A: Positive control, no compound addition; FIG. 1B: 100 μg/ml DIDS; FIG. 1C: 100 μg/ml SITS; FIG. 1D: positive control; FIG. 1E: 10 μg/ml 500,000 MW dextran sulfate; FIG. 1F: 250 μg/ml heparin.
CD4^+ uninfected C8166 cells were seeded into 24-well trays ([…]) that contained growth medium and various concentrations of test compounds. H9 cells, chronically infected with the RF strain of HIV-1, were washed and then added as a source of gp120^+ cells at 10^5 cells/well except for the noncytopathic control: those wells received uninfected H9 cells. The trays were then incubated at 37° C. and the cocultures were observed between 1 and 6 hours p.i. Syncytia were recorded on photographic film.
Protocol: H9 cells chronically infected with RF strain of HIV-1 and uninfected C8166 cells were mixed in the presence of either DIDS, SITS, H2 DIDS, dextran sulfate, or heparin (100 μg/ml). The cells were observed after 2, 31/2 and 51/2 hours and the amount of cell fusion quantified.
Protocol: H9 cells chronically inected with HIV-1 and uninfected C8166 cells were mixed in the presence of either DIDS, SITS, H2 DIDS, dextran sulfate, heparin (at 100 μg/ml), OKT4 or OKT4A (at a 1/50 dilution). The cells were observed after 4 hours and the amount of cell fusion quantitied. OKT4 and OKT4A are monoclonal antibodies that bined the CD4 cell surface antigen.

“Also recorded” adds a separate entry of the source.

For the compound `CC(=O)Nc1ccc(C=Cc2ccc(N=C=S)cc2S(=O)(=O)O)c(S(=O)(=O)O)c1` [SITS, 4-acetamido-4'-isothiocyanatostilbene-2,2'-disulfonic acid], in series [1], the “cell fusion / syncytia” value is reported as “had no effect”. Further, the “growth of RF in MT-4 cells / antiviral activity” value in series [2] is “weak antiviral activity”. For the same compound, in series [3], the “syncytia / fusion after pretreatment” value is given as “failed to block syncytia”.

As for `O=S(=O)(O)c1cc(N=C=S)ccc1C=Cc1ccc(N=C=S)cc1S(=O)(=O)O` [DIDS, 4,4'-diisothiocyanatostilbene-2,2'-disulfonic acid], the “cytotoxicity at antiviral concentrations” value in the series on MT-4 cells was “noncytotoxic”. In addition, the “growth of RF in MT-4 cells / antiviral activity” value in series [2] is “blocked the growth of RF”. The Plaque counts with HCMV (1 μg/ml, first count) is 15; in the series on HCMV (1 μg/ml, second count), 14; with HCMV (10 μg/ml, first count), 16; in the series on HCMV (10 μg/ml, second count), 12; with HCMV (10 μg/ml, third count) it was 11; in the series on HCMV (100 μg/ml, first count), 3. Besides, the Plaque counts in the series with HCMV (100 μg/ml, second count) was 4; with HCMV (100 μg/ml, third count), 3; with HCMV (1000 μg/ml, first count) it was 0; in the series with HCMV (1000 μg/ml, second count) it was 0; with HCMV (1000 μg/ml, third count) it was 0. Moreover, the activity at 1 µg/mL with HCMV (Human betaherpesvirus 5, 1 μg/ml, read-out: Mean % VC (plaques)) came to 49%. Moreover, the activity at 10 µg/mL in the series with HCMV (Human betaherpesvirus 5, 10 μg/ml, read-out: Mean % VC (plaques)) stood at 43%. The activity at 100 µg/mL with HCMV (Human betaherpesvirus 5, 100 μg/ml, read-out: Mean % VC (plaques)) is 10%. Further, the activity at 1000 µg/mL in the series with HCMV (Human betaherpesvirus 5, 1000 μg/ml, read-out: Mean % VC (plaques)) worked out at 0%. In addition, the “syncytia / fusion after pretreatment” value in series [3] is listed as “remained syncytia-free; also recorded: blocks fusion”. Further, the “cell fusion / syncytia” value in series [4] (100 μg/ml, at the time of cell mixing) was “completely prevented cell fusion”. Moreover, in series [4] (100 μg/ml), the “Syncytia after 2 hrs” value worked out at 0. In addition, the “Syncytia after 3 1/2 hrs” value in series [4] (100 μg/ml) stood at 0. Further, the “Syncytia after 5 1/2 hrs” value in series [4] (100 μg/ml) is given as 0. Further, the “protection of C8166 cells” value in series [4] (200 μg/ml, 5 days post-mixing, not shown) is “totally protected the C8166 cells”. The “blocking virus-induced cell fusion and death” value in series [4] (summary statement) was “siginificant antiviral activity”.

Regarding `O=S(=O)(O)c1cc(N=C=S)ccc1CCc1ccc(N=C=S)cc1S(=O)(=O)O` [H2 DIDS, 4,4'-diisothiocyanatodihydrostilbene-2,2'-disulfonic acid], in the series on MT-4 cells, the “cytotoxicity at antiviral concentrations” value is listed as “noncytotoxic”. Moreover, in series [4] (100 μg/ml), the “Syncytia after 2 hrs” value was 0, the “Syncytia after 3 1/2 hrs” value worked out at 0 and the “Syncytia after 5 1/2 hrs” value is 0.

Values taken from US5494932A, “Sulfonic stilbene derivatives in the treatment of viral disease” (Merrell Dow Pharmaceuticals Inc., priority 1991, dated 1996).
